The target of this assay is T1, μ-opioid receptor (Rattus norvegicus, UniProt P33535).
T1 construct: from tissue; host or cells: rat (Sprague Dawley) thalamic membranes
The experiment in a line: Stimulation of [35S]GTPγS binding to rat thalamic membranes (receptor activation of G proteins). It is filed as biochemical, Rat (Sprague Dawley).

T1 sequence (P33535 whole entry): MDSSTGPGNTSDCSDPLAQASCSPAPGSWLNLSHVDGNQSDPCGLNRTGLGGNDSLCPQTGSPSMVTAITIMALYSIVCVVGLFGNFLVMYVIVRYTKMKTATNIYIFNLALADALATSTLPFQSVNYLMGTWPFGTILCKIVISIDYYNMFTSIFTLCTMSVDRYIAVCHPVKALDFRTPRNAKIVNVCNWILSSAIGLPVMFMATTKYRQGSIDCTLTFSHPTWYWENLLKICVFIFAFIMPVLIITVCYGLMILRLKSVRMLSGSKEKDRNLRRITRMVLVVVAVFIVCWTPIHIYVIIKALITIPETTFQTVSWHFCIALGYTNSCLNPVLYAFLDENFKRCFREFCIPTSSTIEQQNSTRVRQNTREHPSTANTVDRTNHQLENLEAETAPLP

Turning to `CC[C@H]1C[C@H]2C[C@H]3c4[nH]c5ccc(O)cc5c4CCN(C2)C13` [Noribogaine, 12-hydroxyibogamine], under “conclusion from [35S]GTPγS binding results”, the “agonist efficacy at the μ-opioid receptor” value is on record as “full agonist”. The “level of [35S]GTPγS binding stimulated vs maximal number of binding sites occupied after DAMGO stimulation” value (relative to DAMGO stimulation of G proteins) is listed as “in close agreement”.

For `CC[C@H]1C[C@H]2C[C@H]3c4[nH]c5ccc(OC)cc5c4CCN(C2)C13` [Ibogaine], where the note is “even at concentrations above 100 μM”, the “stimulation of [35S]GTPγS binding” value is “weak stimulation”.

The values are drawn from US8178524B2, “Noribogaine in the treatment of pain and drug addiction” (Demerx, Inc., priority 1997, dated 2012).
